Several values for one entry are separate records, joined by “and”; a condition that tells them apart may be missing. Equal entries are not always repeated. Toxic doses and inconclusive results are not listed. Rule as the data show it: active = T/C of 150% or more; inactive = T/C below 125%.
Tested on: L1210 leukemia ip in BDF1 mice, survival T/C
Assay: NCI In Vivo Anticancer Drug Screen. Data for tumor model L1210 Leukemia (intraperitoneal) in B6D2F1 (BDF1) mice
Conditions: endpoint: mean survival time, higher = longer survival
Method in brief: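 Tumor cells were implanted, animals were treated, and survival was followed. The result divides the treated measurement by the vehicle-control measurement.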

[1] = dose: 100.0 mg/kg/injection, schedule: Q01DX009 (ip), vehicle: saline with Tween-80
[2] = dose: 200.0 mg/kg/injection, schedule: Q01DX009 (ip), vehicle: saline with Tween-80

Measured: T/C

c1ccc(C[P+](c2ccccc2)(c2ccccc2)c2ccccc2)cc1
inactive: dose: 3.13 mg/kg/injection, schedule: Q01DX009 (ip), vehicle: Klucel (hydroxypropylcellulose) (HPC) 106 % of control | dose: 5.0 mg/kg/injection, schedule: Q01DX001 (ip), vehicle: saline with Tween-80 98 % of control | dose: 5.0 mg/kg/injection, schedule: Q01DX001 (ip), vehicle: saline 105 % of control | dose: 5.0 mg/kg/injection, schedule: Q01DX009 (ip), vehicle: saline with Tween-80 95 % of control | dose: 6.25 mg/kg/injection, schedule: Q01DX009 (ip), vehicle: Klucel (hydroxypropylcellulose) (HPC) 102 % of control and 95 % of control | dose: 10.0 mg/kg/injection, schedule: Q01DX001 (ip), vehicle: saline with Tween-80 92 % of control | dose: 10.0 mg/kg/injection, schedule: Q01DX001 (ip), vehicle: saline 100 % of control | dose: 10.0 mg/kg/injection, schedule: Q01DX009 (ip), vehicle: saline with Tween-80 87 % of control | dose: 12.5 mg/kg/injection, schedule: Q01DX009 (ip), vehicle: Klucel (hydroxypropylcellulose) (HPC) 107 % of control and 96 % of control and 110 % of control | dose: 12.5 mg/kg/injection, schedule: Q04DX003 (ip), vehicle: Klucel (hydroxypropylcellulose) (HPC) 102 % of control | dose: 20.0 mg/kg/injection, schedule: Q01DX001 (ip), vehicle: saline with Tween-80 90 % of control | dose: 20.0 mg/kg/injection, schedule: Q01DX001 (ip), vehicle: saline 96 % of control | dose: 25.0 mg/kg/injection, schedule: Q01DX009 (ip), vehicle: Klucel (hydroxypropylcellulose) (HPC) 89 % of control | dose: 25.0 mg/kg/injection, schedule: Q04DX003 (ip), vehicle: Klucel (hydroxypropylcellulose) (HPC) 102 % of control | dose: 40.0 mg/kg/injection, schedule: Q01DX001 (ip), vehicle: saline 105 % of control

COC(=O)c1ccc(C)cc1C(=O)OC
inactive: dose: 50.0 mg/kg/injection, schedule: Q01DX009 (ip), vehicle: saline with Tween-80 107 % of control | [1] 111 % of control | [2] 107 % of control

Cc1cccc(C)c1OC(=O)Nc1ccccc1Cl
inactive: dose: 100.0 mg/kg/injection, schedule: Q04DX002 (ip), vehicle: Klucel (hydroxypropylcellulose) (HPC) 95 % of control | dose: 200.0 mg/kg/injection, schedule: Q04DX002 (ip), vehicle: Klucel (hydroxypropylcellulose) (HPC) 106 % of control | dose: 400.0 mg/kg/injection, schedule: Q04DX002 (ip), vehicle: Klucel (hydroxypropylcellulose) (HPC) 103 % of control

O=c1oc(/C=C/c2ccccc2)nc2cc(Cl)ccc12
inactive: [1] 103 % of control | [2] 101 % of control | dose: 400.0 mg/kg/injection, schedule: Q01DX009 (ip), vehicle: saline with Tween-80 96 % of control

Nc1cccc2c1C(=O)c1c(c(O)c3ccccc3c1O)C2=O
inactive: dose: 100.0 mg/kg/injection, schedule: Q04DX003 (ip), vehicle: Klucel (hydroxypropylcellulose) (HPC) 100 % of control | dose: 200.0 mg/kg/injection, schedule: Q04DX003 (ip), vehicle: Klucel (hydroxypropylcellulose) (HPC) 96 % of control | dose: 400.0 mg/kg/injection, schedule: Q04DX003 (ip), vehicle: Klucel (hydroxypropylcellulose) (HPC) 96 % of control

Nc1ncc(CSCc2ccccc2)c(-c2ccccc2)n1
inactive: dose: 100.0 mg/kg/injection, schedule: Q04DX002 (ip), vehicle: saline with Tween-80 100 % of control | dose: 200.0 mg/kg/injection, schedule: Q04DX002 (ip), vehicle: saline with Tween-80 96 % of control | dose: 400.0 mg/kg/injection, schedule: Q04DX002 (ip), vehicle: saline with Tween-80 96 % of control

Cn1c(=O)c2[nH]c(CCCSSCCCc3nc4c([nH]3)c(=O)n(C)c(=O)n4C)nc2n(C)c1=O
inactive: dose: 100.0 mg/kg/injection, schedule: Q01DX001 (ip), vehicle: saline 96 % of control | dose: 200.0 mg/kg/injection, schedule: Q01DX001 (ip), vehicle: saline 96 % of control | dose: 400.0 mg/kg/injection, schedule: Q01DX001 (ip), vehicle: saline 96 % of control

CCCCCCCCCCC(CCCCCCCCCC)CC(C)(C)C
inactive: dose: 50.0 mg/kg/injection, schedule: Q01DX001 (ip), vehicle: saline with Tween-80 103 % of control | dose: 100.0 mg/kg/injection, schedule: Q01DX001 (ip), vehicle: saline with Tween-80 96 % of control | dose: 200.0 mg/kg/injection, schedule: Q01DX001 (ip), vehicle: saline with Tween-80 103 % of control

— PubChem BioAssay AID248 (DTP/NCI, 2004)
